Values joined by “and” are separate entries in the source; they are usually repeats but may differ in a detail not shown here. Identical values can stand only once. ± gives the expanded uncertainty stated by the source.
Details: Fluid (supercritical or subcritical phases), Spherical resonator

[Ar] [argon]
speed of sound (250 K, 53.7 kPa): 294.48 ± 0.5 m/s | speed of sound (250 K, 198 kPa): 294.47 ± 0.5 m/s | speed of sound (250 K, 329.4 kPa): 294.47 ± 0.5 m/s | speed of sound (250 K, 2365.8 kPa): 294.8 ± 0.5 m/s | speed of sound (250 K, 4652.9 kPa): 296.36 ± 0.5 m/s | speed of sound (250 K, 5823 kPa): 297.76 ± 0.51 m/s | speed of sound (250.16 K, 48.7 kPa): 294.57 ± 0.5 m/s | speed of sound (250.16 K, 48.8 kPa): 294.58 ± 0.5 m/s | speed of sound (250.16 K, 192 kPa): 294.57 ± 0.5 m/s | speed of sound (250.16 K, 309.1 kPa): 294.57 ± 0.5 m/s | speed of sound (250.16 K, 447.7 kPa): 294.56 ± 0.5 m/s and 294.57 ± 0.5 m/s | speed of sound (250.16 K, 598.6 kPa): 294.56 ± 0.5 m/s and 294.57 ± 0.5 m/s | speed of sound (250.16 K, 732.5 kPa): 294.56 ± 0.5 m/s and 294.58 ± 0.5 m/s | speed of sound (250.16 K, 875.6 kPa): 294.58 ± 0.5 m/s | speed of sound (250.16 K, 1401.1 kPa): 294.62 ± 0.5 m/s and 294.65 ± 0.5 m/s | speed of sound (260 K, 198.6 kPa): 300.35 ± 0.51 m/s | speed of sound (260 K, 327.3 kPa): 300.37 ± 0.51 m/s | speed of sound (260 K, 3507.5 kPa): 301.95 ± 0.51 m/s | speed of sound (260 K, 4624 kPa): 303.04 ± 0.51 m/s | speed of sound (260 K, 6602.3 kPa): 305.84 ± 0.52 m/s | speed of sound (270 K, 53.2 kPa): 306.06 ± 0.52 m/s | speed of sound (270 K, 200 kPa): 306.11 ± 0.52 m/s | speed of sound (270 K, 325.8 kPa): 306.15 ± 0.52 m/s | speed of sound (270 K, 467.2 kPa): 306.2 ± 0.52 m/s | speed of sound (270 K, 3521.8 kPa): 308.29 ± 0.52 m/s | speed of sound (270 K, 4675.9 kPa): 309.59 ± 0.52 m/s | speed of sound (270 K, 5775.2 kPa): 311.12 ± 0.53 m/s | speed of sound (275.1 K, 47.6 kPa): 308.94 ± 0.52 m/s | speed of sound (275.1 K, 206.8 kPa): 309.01 ± 0.52 m/s | speed of sound (275.1 K, 206.9 kPa): 309.01 ± 0.52 m/s | speed of sound (275.1 K, 384.3 kPa): 309.09 ± 0.52 m/s and 309.1 ± 0.52 m/s | speed of sound (275.1 K, 547.4 kPa): 309.17 ± 0.52 m/s and 309.18 ± 0.52 m/s | speed of sound (275.1 K, 591.7 kPa): 309.2 ± 0.52 m/s | speed of sound (275.1 K, 706.2 kPa): 309.25 ± 0.52 m/s and 309.26 ± 0.52 m/s | speed of sound (275.1 K, 733.8 kPa): 309.27 ± 0.52 m/s and 309.28 ± 0.52 m/s | speed of sound (275.1 K, 860.2 kPa): 309.34 ± 0.52 m/s and 309.33 ± 0.52 m/s and 309.35 ± 0.52 m/s | speed of sound (275.1 K, 860.3 kPa): 309.35 ± 0.52 m/s | speed of sound (275.1 K, 1389.2 kPa): 309.65 ± 0.52 m/s | speed of sound (275.1 K, 1389.3 kPa): 309.67 ± 0.52 m/s | speed of sound (280 K, 200.1 kPa): 311.76 ± 0.53 m/s | speed of sound (280 K, 328.3 kPa): 311.83 ± 0.53 m/s | speed of sound (280 K, 2342.8 kPa): 313.26 ± 0.53 m/s | speed of sound (280 K, 4647.9 kPa): 315.83 ± 0.53 m/s | speed of sound (280 K, 5767 kPa): 317.48 ± 0.53 m/s | speed of sound (280 K, 6610.3 kPa): 318.94 ± 0.54 m/s | speed of sound (280.12 K, 99.1 kPa): 311.77 ± 0.53 m/s | speed of sound (280.12 K, 305.2 kPa): 311.87 ± 0.53 m/s | speed of sound (280.12 K, 307.7 kPa): 311.89 ± 0.53 m/s | speed of sound (280.12 K, 529.4 kPa): 312 ± 0.53 m/s | speed of sound (280.12 K, 531.1 kPa): 312.01 ± 0.53 m/s | speed of sound (280.12 K, 745.8 kPa): 312.13 ± 0.53 m/s | speed of sound (280.12 K, 748 kPa): 312.14 ± 0.53 m/s | speed of sound (280.12 K, 962.4 kPa): 312.27 ± 0.53 m/s | speed of sound (280.12 K, 964.6 kPa): 312.28 ± 0.53 m/s | speed of sound (280.12 K, 1184.9 kPa): 312.42 ± 0.53 m/s | speed of sound (280.12 K, 1396.4 kPa): 312.58 ± 0.53 m/s | speed of sound (280.12 K, 1396.8 kPa): 312.57 ± 0.53 m/s | speed of sound (280.12 K, 1601.7 kPa): 312.72 ± 0.53 m/s | speed of sound (280.12 K, 1834.4 kPa): 312.91 ± 0.53 m/s | speed of sound (290 K, 53.6 kPa): 317.2 ± 0.53 m/s | speed of sound (290 K, 196.4 kPa): 317.3 ± 0.53 m/s | speed of sound (290 K, 1191.6 kPa): 318.04 ± 0.53 m/s | speed of sound (290 K, 2325 kPa): 319.08 ± 0.54 m/s | speed of sound (290 K, 3477.8 kPa): 320.36 ± 0.54 m/s | speed of sound (300 K, 30.5 kPa): 322.62 ± 0.54 m/s | speed of sound (300 K, 183.8 kPa): 322.74 ± 0.54 m/s | speed of sound (300 K, 308.3 kPa): 322.84 ± 0.54 m/s | speed of sound (300 K, 1180.9 kPa): 323.61 ± 0.54 m/s | speed of sound (300 K, 2331.5 kPa): 324.81 ± 0.55 m/s | speed of sound (300 K, 4657.3 kPa): 327.88 ± 0.55 m/s | speed of sound (300 K, 5832.9 kPa): 329.8 ± 0.55 m/s | speed of sound (300 K, 6595.8 kPa): 331.21 ± 0.56 m/s | speed of sound (300.11 K, 100.3 kPa): 322.73 ± 0.54 m/s | speed of sound (300.11 K, 244.7 kPa): 322.85 ± 0.54 m/s | speed of sound (300.11 K, 395.4 kPa): 322.98 ± 0.54 m/s | speed of sound (300.11 K, 528 kPa): 323.11 ± 0.54 m/s | speed of sound (300.11 K, 558.1 kPa): 323.12 ± 0.54 m/s | speed of sound (300.11 K, 701.6 kPa): 323.24 ± 0.54 m/s | speed of sound (300.11 K, 739.1 kPa): 323.3 ± 0.54 m/s | speed of sound (300.11 K, 868 kPa): 323.39 ± 0.54 m/s | speed of sound (300.11 K, 963 kPa): 323.5 ± 0.54 m/s | speed of sound (300.11 K, 1011.7 kPa): 323.53 ± 0.54 m/s | speed of sound (300.11 K, 1166.1 kPa): 323.69 ± 0.54 m/s | speed of sound (300.11 K, 1618 kPa): 324.14 ± 0.54 m/s | speed of sound (300.11 K, 1836.4 kPa): 324.37 ± 0.54 m/s | speed of sound (300.12 K, 48.1 kPa): 322.69 ± 0.54 m/s | speed of sound (300.12 K, 193 kPa): 322.81 ± 0.54 m/s | speed of sound (300.12 K, 308.1 kPa): 322.91 ± 0.54 m/s | speed of sound (300.12 K, 445.5 kPa): 323.02 ± 0.54 m/s and 323.03 ± 0.54 m/s | speed of sound (300.12 K, 729.9 kPa): 323.27 ± 0.54 m/s and 323.28 ± 0.54 m/s | speed of sound (300.12 K, 868.1 kPa): 323.39 ± 0.54 m/s | speed of sound (300.12 K, 868.2 kPa): 323.4 ± 0.54 m/s and 323.41 ± 0.54 m/s | speed of sound (300.12 K, 1378.6 kPa): 323.87 ± 0.54 m/s and 323.89 ± 0.54 m/s | speed of sound (310 K, 104.7 kPa): 328.02 ± 0.55 m/s | speed of sound (310 K, 198.6 kPa): 328.11 ± 0.55 m/s | speed of sound (310 K, 329.2 kPa): 328.23 ± 0.55 m/s | speed of sound (310 K, 463.4 kPa): 328.35 ± 0.55 m/s | speed of sound (310 K, 2330.1 kPa): 330.38 ± 0.55 m/s | speed of sound (310 K, 4624.6 kPa): 333.59 ± 0.56 m/s | speed of sound (310 K, 6595.8 kPa): 337.02 ± 0.56 m/s | speed of sound (320 K, 102 kPa): 333.28 ± 0.56 m/s | speed of sound (320 K, 180.5 kPa): 333.35 ± 0.56 m/s | speed of sound (320 K, 311 kPa): 333.48 ± 0.56 m/s | speed of sound (320 K, 450.5 kPa): 333.63 ± 0.56 m/s | speed of sound (320 K, 576.4 kPa): 333.77 ± 0.56 m/s and 333.79 ± 0.56 m/s | speed of sound (320 K, 1053.9 kPa): 334.3 ± 0.56 m/s and 334.32 ± 0.56 m/s | speed of sound (320 K, 1550.8 kPa): 334.89 ± 0.56 m/s and 334.9 ± 0.56 m/s | speed of sound (320 K, 2333.1 kPa): 335.85 ± 0.56 m/s | speed of sound (320 K, 4482.2 kPa): 339 ± 0.57 m/s | speed of sound (320 K, 5819.9 kPa): 341.24 ± 0.57 m/s | speed of sound (325.05 K, 48.1 kPa): 335.83 ± 0.56 m/s | speed of sound (325.05 K, 192.9 kPa): 336 ± 0.56 m/s and 335.99 ± 0.56 m/s | speed of sound (325.05 K, 314.5 kPa): 336.13 ± 0.56 m/s | speed of sound (325.05 K, 438.6 kPa): 336.27 ± 0.56 m/s | speed of sound (325.05 K, 592.7 kPa): 336.44 ± 0.56 m/s | speed of sound (325.05 K, 736 kPa): 336.6 ± 0.56 m/s | speed of sound (325.05 K, 870.8 kPa): 336.76 ± 0.56 m/s | speed of sound (325.05 K, 1376.5 kPa): 337.36 ± 0.56 m/s | speed of sound (325.05 K, 1376.6 kPa): 337.37 ± 0.56 m/s | speed of sound (325.05 K, 2721.4 kPa): 339.14 ± 0.57 m/s | speed of sound (349.87 K, 48.9 kPa): 348.43 ± 0.58 m/s and 348.44 ± 0.58 m/s | speed of sound (349.87 K, 182.8 kPa): 348.62 ± 0.58 m/s | speed of sound (349.87 K, 182.9 kPa): 348.61 ± 0.58 m/s | speed of sound (349.87 K, 307.3 kPa): 348.77 ± 0.58 m/s and 348.78 ± 0.58 m/s | speed of sound (349.87 K, 447 kPa): 348.95 ± 0.58 m/s and 348.97 ± 0.58 m/s | speed of sound (349.87 K, 594.5 kPa): 349.14 ± 0.58 m/s | speed of sound (349.87 K, 726.7 kPa): 349.32 ± 0.58 m/s and 349.34 ± 0.58 m/s | speed of sound (349.87 K, 864.5 kPa): 349.5 ± 0.58 m/s | speed of sound (349.87 K, 864.6 kPa): 349.52 ± 0.58 m/s | speed of sound (349.87 K, 1397.7 kPa): 350.24 ± 0.58 m/s and 350.26 ± 0.58 m/s | speed of sound (349.87 K, 2711.2 kPa): 352.19 ± 0.59 m/s

Source: the NIST ThermoML archive (doi:10.1021/je900428g)
